Experimental data as given in ChEMBL document CHEMBL2321790, “1,4,2-Benzo/pyridodithiazine 1,1-dioxides structurally related to the ATP-sensitive potassium channel openers 1,2,4-Benzo/pyridothiadiazine 1,1-dioxides exert a myorelaxant activity linked to a distinct mechanism of action” (J Med Chem, 2013).

Experiments:
Rattus norvegicus = organism: Rattus norvegicus; assay: Activation of ATP-sensitive potassium channel opening in albino rat pancreatic islets assessed as inhibition of glucose-induced insulin release measured as residual insulin release at 10 uM after 90 mins by radioimmunoassay
[1] = Activation of ATP-sensitive potassium channel opening in albino rat aorta rings assessed as relaxation of KCl-induced contraction of aorta rings; assay type: tissue-based
[2] = Dissociation constant, pKa of the compound in water at 25 degC; assay type: physicochemical
Aorta [3] = assay: Myorelaxant activity in albino rat aorta rings assessed as relaxation of 30 mM KCl-induced contraction of aorta rings; assay type: functional, tissue-based
Aorta [4] = assay: Myorelaxant activity in albino rat aorta rings assessed as relaxation of KCl-induced contraction of aorta rings in presence of 1 uM KATP channel blocker glibenclamide; assay type: functional, tissue-based
Aorta [5] = assay: Myorelaxant activity in albino rat aorta rings assessed as relaxation of KCl-induced contraction of aorta rings in presence of 10 uM KATP channel blocker glibenclamide; assay type: functional, tissue-based
Aorta [6] = assay: Myorelaxant activity in albino rat aorta rings assessed as relaxation of 80 mM KCl-induced contraction of aorta rings; assay type: functional, tissue-based
Aorta [7] = assay: Myorelaxant activity in albino rat aorta rings assessed as relaxation of KCl-induced contraction of aorta rings; assay type: functional, tissue-based

| Compound | Activity (Rattus norvegicus) [%] | EC50 [1] [µM] | also measured |
| --- | --- | --- | --- |
| O=S1(=O)N=C(Nc2ccccc2)Sc2ccc(C(F)(F)F)cc21 | 67.8 | 13.7 |  |
| CC(SC1=NS(=O)(=O)c2cc(Br)ccc2N1)c1ccccc1 (configuration not stated) | 91.7 | 11.9 |  |
| CC(C)NC1=NS(=O)(=O)c2cccc(Cl)c2S1 | 82.4 | > 30 |  |
| CC(C)NC1=NS(=O)(=O)c2cc(Cl)ccc2S1 | 92.2 | > 100 | pKa [2]: 9.76 |
| CC(NC1=NS(=O)(=O)c2cc([N+](=O)[O-])ccc2S1)c1ccccc1 (configuration not stated) | 91.5 | 15.9 |  |
| CC(SC1=NS(=O)(=O)c2cc(Cl)ccc2N1)c1ccccc1 (configuration not stated) | 71.1 | 5.4 |  |
| CC(C)NC1=NS(=O)(=O)c2cc(Cl)ccc2N1 | 4.8 | 31.8 |  |
| CC(NC1=NS(=O)(=O)c2cc(C(F)(F)F)ccc2S1)c1ccccc1 (racemic) [listing 1 of 2 here] |  | 11.6 | EC50 (Aorta [3]): 16.2 µM; EC50 (Aorta [4]): 17.3 µM; EC50 (Aorta [5]; read-out: EC50): 15.5 µM; EC50 (Aorta [6]): 14.9 µM |
| CC(SC1=NS(=O)(=O)c2cc(F)ccc2N1)c1ccccc1 (configuration not stated) [listing 1 of 2 here] | 95.5 |  |  |
| CC(C)NC1=NS(=O)(=O)c2cc([N+](=O)[O-])ccc2S1 | 97.7 | 176 |  |
| CC(SC1=NS(=O)(=O)c2cccc(Cl)c2N1)c1ccccc1 (configuration not stated) | 79.2 | > 30 |  |
| CC(SC1=NS(=O)(=O)c2ccc(Cl)cc2N1)c1ccccc1 (configuration not stated) | 76.3 | 5.7 |  |
| CC(NC1=NS(=O)(=O)c2cc(S(C)(=O)=O)ccc2S1)c1ccccc1 (configuration not stated) | 83.4 | > 30 |  |
| O=[N+]([O-])c1ccc2c(c1)S(=O)(=O)N=C(NC1CC1)S2 | 88.2 | > 200 |  |
| CCC(C)NC1=NS(=O)(=O)c2cc(C(F)(F)F)ccc2S1 (configuration not stated) | 110 | 38.8 |  |
| CC(NC1=NS(=O)(=O)c2cc(C(F)(F)F)ccc2S1)c1ccccc1 (stereo in doubt; 6t) | 97 |  |  |
| CS(=O)(=O)c1ccc2c(c1)S(=O)(=O)N=C(Nc1ccccc1)S2 | 92.4 | > 30 |  |
| O=[N+]([O-])c1ccc2c(c1)S(=O)(=O)N=C(NCC1CC1)S2 | 90.2 | 61.1 |  |
| CC(C)CNC1=NS(=O)(=O)c2cc([N+](=O)[O-])ccc2S1 | 110 | 69.1 |  |
| CC(C)NC1=NS(=O)(=O)c2cc(C(F)(F)F)ccc2S1 | 108 | 53.7 |  |

| Compound | Activity (Rattus norvegicus) [%] | EC50 [1] [µM] | also measured |
| --- | --- | --- | --- |
| CC(C)NC1=NS(=O)(=O)c2cnccc2S1 | 90.6 | 190 |  |
| CC(C)NC1=NS(=O)(=O)c2cc(S(C)(=O)=O)ccc2S1 | 76.3 | > 200 |  |
| C[C@@H](NC1=NS(=O)(=O)c2cc(C(F)(F)F)ccc2S1)c1ccccc1 |  | > 30 |  |
| CC(C)NC1=NS(=O)(=O)c2cc(C#N)ccc2S1 | 86.2 | 152 |  |
| CCNC1=NS(=O)(=O)c2cc([N+](=O)[O-])ccc2S1 | 100 | > 30 |  |
| O=S1(=O)N=C(NC2CCCC2)Sc2ccc(C(F)(F)F)cc21 | 89.5 | 48.7 |  |
| CC(SC1=NS(=O)(=O)c2cc(F)ccc2N1)c1ccccc1 (configuration not stated) [listing 2 of 2 here] |  | 15 |  |
| CC1=Nc2ccc(Cl)cc2S(=O)(=O)N1 [DIAZOXIDE] | 73.9 | 26.2 | EC50 (Aorta [3]): 23.8 µM; EC50 (Aorta [4]): 154 µM; EC50 (Aorta [5]; read-out: EC50): 280 µM; EC50 (Aorta [6]): > 300 µM |
| O=[N+]([O-])c1ccc2c(c1)S(=O)(=O)N=C(Nc1ccccc1)S2 | 89.5 | > 200 |  |
| CC(NC1=NS(=O)(=O)c2cc(C(F)(F)F)ccc2S1)c1ccccc1 (racemic) [listing 2 of 2 here] | 97 |  |  |
| CC(C)NC1=NS(=O)(=O)c2ccc(Cl)cc2S1 | 78.9 | > 30 |  |
| CC(SC1=NS(=O)(=O)c2cc(F)ccc2N1)c1ccccc1 (racemic) |  |  | EC50 (Aorta [3]): 13.2 µM; EC50 (Aorta [4]): 33.3 µM; EC50 (Aorta [5]; read-out: EC50): 36.2 µM; EC50 (Aorta [6]): 27.5 µM |
| COc1ccc(CCN(C)CCCC(C#N)(c2ccc(OC)c(OC)c2)C(C)C)cc1OC (configuration not stated) [VERAPAMIL] |  |  | EC50 (Aorta [3]): 0.031 µM; EC50 (Aorta [4]): 0.038 µM; EC50 (Aorta [5]): 0.35 µM; EC50 (Aorta [6]): 0.052 µM; Activity (Aorta [7]): Dose-dependent effect |
| C[C@H](NC1=NS(=O)(=O)c2cc(C(F)(F)F)ccc2S1)c1ccccc1 |  | 11.3 |  |
| CC(C)NC1=NS(=O)(=O)c2cc(C(=O)O)ccc2S1 | 68.5 | > 200 |  |
| O=[N+]([O-])c1ccc2c(c1)S(=O)(=O)N=C(NCc1ccccc1)S2 | 77.7 | > 30 |  |
| CC(C)NC1=NS(=O)(=O)c2c[n+]([O-])ccc2S1 | 76.7 | > 200 |  |
| CCC(C)NC1=NS(=O)(=O)c2cc([N+](=O)[O-])ccc2S1 (configuration not stated) | 110 | 59.9 |  |
| CC(SC1=NS(=O)(=O)c2cc(I)ccc2N1)c1ccccc1 (configuration not stated) | 81.4 | 5.4 |  |
| O=[N+]([O-])c1ccc2c(c1)S(=O)(=O)N=C(NC1CCCC1)S2 | 100 | 42.6 |  |
